“Also recorded” adds a separate entry of the source. One block for each compound: values may come before it.
How the values were obtained:
[1] = molecular target: T1, PAR4 (Homo sapiens, UniProt Q96RI0); assay: PAC-1 binding assay; type: cell-based; conditions: for PAR4 activity (in words): PAR4-AP, PAC-1
T1 sequence (Q96RI0 18-385): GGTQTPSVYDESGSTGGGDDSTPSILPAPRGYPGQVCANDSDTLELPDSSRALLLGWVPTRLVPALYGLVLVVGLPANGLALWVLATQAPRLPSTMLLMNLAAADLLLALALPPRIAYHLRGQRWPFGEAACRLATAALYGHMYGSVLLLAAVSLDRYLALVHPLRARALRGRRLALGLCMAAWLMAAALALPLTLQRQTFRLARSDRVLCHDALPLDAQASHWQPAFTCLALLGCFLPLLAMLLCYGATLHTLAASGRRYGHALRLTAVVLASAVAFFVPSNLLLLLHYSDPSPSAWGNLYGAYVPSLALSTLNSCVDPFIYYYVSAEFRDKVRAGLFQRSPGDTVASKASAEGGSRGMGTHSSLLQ

[2] = In vivo rat PK; conditions: plasma, iv, 0.2 mg/kg
[3] = Predicted hepatic clearance in rat microsomes; type: in vitro ADME
[4] = Predicted hepatic clearance in human microsomes; type: in vitro ADME
[5] = molecular target: T1, PAR4; assay: Progressive fold-shift inhibition assay/Schild analysis; type: cell-based
[6] = tested on: PAR4; conditions: read-out: EC50 for PAR4; thrombin as agonist; background statement; cited from earlier work
[7] = molecular target: T2, PAR4 (Homo sapiens, UniProt Q96RI0); conditions: literature antagonists; cited from earlier work
T2 sequence (Q96RI0 48-385): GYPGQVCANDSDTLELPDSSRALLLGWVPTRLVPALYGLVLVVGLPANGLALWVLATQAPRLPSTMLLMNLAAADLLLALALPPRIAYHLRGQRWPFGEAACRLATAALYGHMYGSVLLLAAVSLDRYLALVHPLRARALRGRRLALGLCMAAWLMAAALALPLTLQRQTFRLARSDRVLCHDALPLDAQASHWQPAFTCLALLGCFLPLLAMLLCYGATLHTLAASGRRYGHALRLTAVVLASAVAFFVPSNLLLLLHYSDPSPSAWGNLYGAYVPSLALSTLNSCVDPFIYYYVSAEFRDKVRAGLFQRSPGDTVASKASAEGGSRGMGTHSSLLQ

Compound: COc1ccc(-c2c(CO)n(Cc3ccccc3F)c3ccc(OC(F)(F)F)cc23)cn1 [9c]
- PAR4 activity (in words) [1]: devoid of PAR4 activity

Compound: COc1ccc(-c2c(CO)n(Cc3ccccc3)c3ccc(OC(F)(F)F)cc23)cn1 [9b]
- PAR4 activity (in words) [1]: devoid of PAR4 activity

Compound: COc1ccc(-c2c(CO)n(C)c3ccc(C(F)(F)F)cc23)cn1 [9a]
- PAR4 activity (in words) [1]: devoid of PAR4 activity

Compound: COc1cccc(Cn2c(CO)c(-c3ccc(OC)nc3)c3cc(C(F)(F)F)ccc32)c1 [9d]
- PAR4 activity (in words) [1]: devoid of PAR4 activity

Compound: Thrombin
- EC50 [6]: ~5 nM

Compound: COc1ccc(-c2c(CO)n(Cc3cccc(Cl)c3)c3ccc(OC(F)(F)F)cc23)cn1 [9h]
- PAR4 activity (in words) [1]: devoid of PAR4 activity

Compound: CCOC(=O)c1ccc(-c2nn(Cc3ccccc3)c3ccccc23)cc1 [compound 1]
- activity upon γ-thrombin activation (in words) [7]: lack of activity

Compound: COc1ccc(-c2c(CO)n(Cc3cccc(F)c3)c3ccc(OC(F)(F)F)cc23)cn1 [9e]
- PAR4 activity (in words) [1]: devoid of PAR4 activity

The next lines start with results.

- clearance at 6 h [2]: 45 mL/min/kg
- rat CLHEP [3]: 36.1 mL/min/kg
- human CLHEP [4]: 1.1 mL/min/kg
Compound: COc1nn2cc(-c3c(CO)n(Cc4ccccc4Cl)c4ccc(OC(F)(F)F)cc34)nc2s1 [10h]
- mode of PAR4 inhibition [5]: complex mode of PAR4 inhibition; also recorded: mixed competitive/noncompetitive mechanism of action

- IC50 [1]: 930 nM
Compound: COc1ccc(-c2c(CO)n(Cc3ccccc3Cl)c3cc(OC(F)(F)F)ccc23)cn1 [11d]

- PAR4 activity (in words) [1]: inactive
Compound: OCc1c(-c2cncnc2)c2cc(OC(F)(F)F)ccc2n1Cc1ccc(F)cc1F [10b]

- IC50 [1]: 1490 nM
Compound: CSc1ncc(-c2c(CO)n(Cc3ccc(F)cc3F)c3ccc(OC(F)(F)F)cc23)cn1 [10c]
